Measurements as given in patent US11578043B2, “Salt of delmopinol” (Lundbeck Pharmaceuticals Italy S.p.A., priority 2017, dated 2023).
Where a name gives a salt, the structure may show the parent alone.

Columns and labels:
[1] = Dynamic Vapour Sorption (DVS) experiments; assay type: physicochemical; settings: DVS at 25° C.; for water / moisture absorbed (change in mass) when humidity is increased to 95%: relative humidity from 30% RH up to 95% RH in steps of 10% RH; for hygroscopicity (in words): up to 95% RH, non-hygroscopic = less than 1.5% moisture absorbed at 95% RH
Protocol: The DVS experiments depicted in FIGS. 3 and 4 were performed at 25° C. […] In the present context, a “non-hygroscopic” salt of delmopinol indicates a salt wherein less than 1.5% moisture is absorbed when the salt is exposed to 95% RH at 25° C. for example when determined by Dynamic Vapor Sorption (DVS) according to the method of Example 4. Dynamic Vapour Sorption (DVS) experiments were performed for delmopinol HCl and delmopinol citrate using a SMS DVS Advantage 01 changing the relative humidity from 30% RH up to 95% RH in steps of 10% RH.

[2] = XRPD of the salt before and after DVS (solid state change on exposure to humidity); assay type: physicochemical; settings: after DVS experiments at 95% RH
Protocol: The XRPD diffractograms in FIGS. 5 and 6 were obtained using CuKα1 radiation (λ=1.5406 Å). […] The hygroscopicity of delmopinol HCl is reflected in FIG. 4 depicting the DVS diagram obtained at 25° C. by the method described in Example 4. […] These diffractograms were obtained on another instrument.

humidity at which the salt starts absorbing water [1]	water / moisture absorbed (change in mass) when humidity is increased to 95% [1]	hygroscopicity (in words) [1]	change of solid state caused by exposure to humidity (XRPD after DVS vs non-exposed material) [2]	SMILES
below 50 % humidity	about 45%	very hygroscopic	irreversible	CCCC(CCC)CCCC1COCCN1CCO (stereo not drawn) [delmopinol HCl, 2-(3-(4-propylheptyl)morpholino)ethan-1-ol]
	less than 1.5%	non-hygroscopic		CCCC(CCC)CCCC1COCCN1CCO.O=C(O)CC(O)(CC(=O)O)C(=O)O (stereo not drawn) [delmopinol citrate, 2-(3-(4-propylheptyl)morpholino)ethan-1-ol]
